US9688637B2, “3-amidobenzamides and uses thereof for increasing cellular levels of A3G and other A3 family members” (Northwestern University, priority 2014, dated 2017)

Key:
[1] = system: A3G-Luc; assay: A3G-Luc luciferase screen in 293T cells stably expressing A3G-Luc; assay type: cell-based, human; conditions: 10 μM, 48 hrs, DMSO = 100%
From the text: This background led to construction of cell lines to use in a search for compounds that might boost levels of A3s in the HIV target cells of the majority of HIV-infected persons who are non-controllers. The goal is to test a strategy of using such a booster in acute/early infection to prevent the hypothesized decrease of A3G and related A3s in an effort to increase “control” in persons lacking HLA B57/27-associated control. […] 293T and TZM-bl cells were maintained in DMEM (containing 4.5 g/liter glucose, L-glutamine, and sodium pyruvate) medium plus 10% fetal bovine serum, 50 IU/ml penicillin, and 50 μg/ml streptomycin at 37° C. and 5% CO2 throughout the experiments. […]. After collecting viral supernatant, 293T cells were infected with viral particles harboring the A3G-Luc expressing vector and selected with puromycin (0.75 μg/ml) for three days. Ten single cell clones of stable cells were isolated and tested for expression of A3G-Luc protein by both immunoblotting using antibody against A3G and measuring luciferase activity. Expressions in cell lines used for subsequent experiments are depicted in FIG. 2, upper panel. The A3G-Luc fusion protein was sensitive to Vif-mediated degradation (FIG. 3). Similar cells lines stably expressing A3F were constructed with the same methods (not shown).
To screen compounds that can boost A3G levels, 293T cells (25,000 cells per well in 96-well plate) stably expressing A3G-Luc protein or A3G-Luc/Vif proteins were plated. […] After 48 hrs of incubation with compounds culture medium was removed from each well and replaced with 100 μl of Britelite Plus luciferase assay substrate (PerkinElmer). Following 5 min. of incubation at room temperature, 75 μl of each cell lysate was transferred to a 96-well OptiPlate 96 (PerkinElmer) and luminescence was measured in a VICTOR X2 Multilabel Reader (PerkinElmer). Relative activity of compounds for their boosting capability A3G-Luc activity was calculated by plotting DMSO-treated A3G-Luc or A3G-Luc/Vif cells as 100%. Cellular cytotoxicity was measured by counting number of cells after 48 hrs of incubation with compounds compared to DMSO treated cells.

[2] = system: A3G-Luc/Vif; assay: A3G-Luc/Vif luciferase screen in 293T cells stably co-expressing A3G-Luc and HIV-1 Vif; assay type: cell-based, human; conditions: 10 μM, 48 hrs, DMSO = 100%
Method: FIG. 6. 293T cell clone #6 stably co-expressing A3G-Luciferase fusion protein together with HIV-1 Vif was used. Small molecule compounds were tested for their effects on stability of A3G and inhibition of Vif activity against A3G by measuring luciferase activity, relative to treatment with control DMSO only. The relative % luciferase activity was higher after treatment with NU compounds than DMSO.
[…]. After sorting, expression of both A3G-Luc and Vif was confirmed by immunoblotting using antibody against both A3G and Vif.
(§1) To screen compounds that can boost A3G levels, 293T cells (25,000 cells per well in 96-well plate) stably expressing A3G-Luc protein or A3G-Luc/Vif proteins were plated. After 24 hrs post plating culture medium was replaced with 100 μl of new medium containing either DMSO as a control or various compounds (10 μM concentration). After 48 hrs of incubation with compounds culture medium was removed from each well and replaced with 100 μl of Britelite Plus luciferase assay substrate (PerkinElmer). Following 5 min. of incubation at room temperature, 75 μl of each cell lysate was transferred to a 96-well OptiPlate 96 (PerkinElmer) and luminescence was measured in a VICTOR X2 Multilabel Reader (PerkinElmer). Relative activity of compounds for their boosting capability A3G-Luc activity was calculated by plotting DMSO-treated A3G-Luc or A3G-Luc/Vif cells as 100%. Cellular cytotoxicity was measured by counting number of cells after 48 hrs of incubation with compounds compared to DMSO treated cells.

[3] = system: Wild-type HIV-1; assay: A3G-mediated restriction of wild-type HIV-1; virus from 293T stably expressing A3G, TZM-bl readout; assay type: cell-based; conditions: Human immunodeficiency virus 1, HEK-293T, read-out: A3G-mediated Restriction by Compounds on Wild-type HIV-1 (% of HIV replication relative to DMSO treated Control)
Method: (§2) To test the effect of compounds shown to boost A3G-Luc levels in our screening systems on inhibition of wild-type HIV-1 replication by A3G or A3F, 293T cell lines stably expressing A3G or A3F were plated (750,000 cells per well in 6-well plate). At 24 hrs post plating, 1.5 μg of a wild-type (Vif-positive) HIV-1 proviral vector, NL4.3, was transfected into the 293T stable cell lines expressing either A3G or A3F. At 4 hrs post transfection, either DMSO as a control or an individual compound from series described below was added into the culture medium at a 10 μM concentration. At 1 day post transfection, supernatant fluids containing viral particles were filtered through […] filter to remove cellular debris. To test the effect of compound on HIV-1 replication, TZM-bl indicator cells were plated at a density of 10,000 cells/well in a 96 well culture plate 24 hrs prior to infection. TZM-bl indicator cells express luciferase gene under the control of HIV LTR promoter and are routinely used to measure HIV-1 replication capability. On the day of infection, the culture medium was removed and the cells inoculated with equal amount of HIV-1 particles in triplicate with 100 μl of viral supernatants in culture medium containing 20 μg/ml DEAE-dextran. After 24 hrs of incubation, culture medium was removed from each well and replaced with 100 μl of Britelite Plus luciferase assay substrate. Following 5 min. of incubation at room temperature, 75 μl of each cell lysate was transferred to a 96-well OptiPlate 96 and luminescence was measured in a VICTOR X2 Multilabel Reader as described above. Relative infectivity was calculated by plotting luciferase activity from viral particle from DMSO treated A3G or A3F cell lines as 100%. We only tested effect A3F- or A3G mediated restriction of HIV-1 replication by compounds boosting luciferase activity by more than 160% compared to DMSO control sample.

[4] = system: Wild-type HIV-1; assay: A3F-mediated restriction of wild-type HIV-1; virus from 293T stably expressing A3F, TZM-bl readout; assay type: cell-based; conditions: Human immunodeficiency virus 1, HEK-293T, read-out: A3F-mediated Restriction by Compounds on Wild-type HIV-1 (% of HIV replication relative to DMSO treated Control)
Method: as §2

[5] = system: 293T cells; assay: Cellular cytotoxicity by counting cells after 48 hrs with compound vs DMSO; assay type: cell-based; conditions: concentration at which cell death was seen; 48 hrs
Method: as §1

| Structure (SMILES) | A3G-Luc Activity (% of Relative Light Units compared to DMSO treated control) [1] [%] | Vif-A3G-Luc Activity (% of RLUs compared to DMSO treated control) [2] [%] | activity at 10 µM [3] [%] | activity at 10 µM [4] [%] | Cytotoxicity: Cell Death at [5] |
| --- | --- | --- | --- | --- | --- |
| COC(=O)Nc1cc(C(=O)Nc2ccc(Cl)c(Cl)c2)ccc1OC [NU-460] | 254 | 119 | 34 | 34 | – |
| O=C(CCCCC1SC[C@@H]2NC(=O)N[C@H]12)NCCOCCOc1ccc(C(=O)Nc2ccc(Cl)c(Cl)c2)cc1NC(=O)CC1CC1 (some centres unmarked) [NU-128] | 141 | – | 62 | – | – |
| CCOc1ccc(C(=O)Nc2ccc(Cl)c(Cl)c2)cc1NC(=O)C1CCC1 [NU-612] | 202 | 178 | 81 | 96 | – |
| COCCOc1ccc(C(=O)Nc2ccc(Cl)c(Cl)c2)cc1NC(=O)CC1CC1 [NU-617] | 191 | 182 | 74 | – | – |
| COCCC(=O)Nc1cc(C(=O)Nc2ccc(Cl)c(Cl)c2)ccc1OC [NU-463] | 287 | 178 | 64 | 67 | – |
| COc1ccc(C(=O)Nc2ccc(Cl)c(Cl)c2)cc1NC(=O)N(C)C [NU-472] | 238 | 146 | 61 | 49 | – |
| COc1ccc(C(=O)Nc2ccc(Cl)c(Cl)c2)cc1NC(=O)CN(C)C [NU-471] | 238 | 175 | 66 | 65 | – |
| COc1ccc(C(=O)Nc2ccc(Cl)c(Cl)c2)cc1NS(C)(=O)=O [NU-467] | 194 | 146 | 79 | 64 | – |
| COc1ccc(C(=O)Nc2ccc(F)cc2)cc1NC(=O)C(C)C [NU-564] | 162 | 102 | 72 | – | – |
| COCC(=O)Nc1cc(C(=O)Nc2ccc(Cl)c(Cl)c2)ccc1OC [NU-462] | 282 | 170 | 62 | 53 | – |
| COc1ccc(C(=O)Nc2ccc(Cl)c(Cl)c2)cc1NC(=O)C1CCCO1 (centres unmarked) [NU-464] | 288 | 170 | 77 | 77 | – |
| COc1ccc(C(=O)Nc2ccc(Cl)c(Cl)c2)cc1NC(=O)C1CC1C (centres unmarked) [NU-465] | 193 | 106 | 47 | 53 | – |
| CCOc1ccc(C(=O)Nc2ccc(Cl)c(Cl)c2)cc1NC(=O)CC1CC1 [NU-613] | 186 | 158 | 98 | 85 | – |
| COc1ccc(C(=O)Nc2ccc(Cl)c(Cl)c2)cc1NC(=O)C(C)(C)C [NU-458] | 189 | 123 | 54 | 45 | – |
| COc1ccc(C(=O)Nc2ccc(Cl)c(Cl)c2)cc1NC(=O)CC(C)(C)C [NU-474] | 105 | 71 | – | – | – |
| COc1ccc(C(=O)Nc2ccc(Cl)c(Cl)c2)cc1NC(=O)C1CCCC1 [NU-455] | 188 | 131 | – | – | – |
| COc1ccc(C(=O)Nc2ccc(Cl)c(Cl)c2)cc1NS(=O)(=O)C(C)C [NU-468] | 213 | 147 | 58 | 48 | – |
| COc1ccc(C(=O)N2CCc3ccccc3C2)cc1NC(=O)C(C)C [NU-570] | 96 | 87 | – | – | – |
| COc1ccc(C(=O)NCc2ccc(F)cc2)cc1NC(=O)C(C)C [NU-567] | 93 | 76 | – | – | – |
| CCCCOc1ccc(C(=O)Nc2ccc(Cl)c(Cl)c2)cc1NC(=O)CC1CC1 [NU-615] | 102 | 105 | – | – | – |
| COc1ccc(C(=O)Nc2ccc(Cl)c(Cl)c2)cc1NC(=O)C1CC1 [NU-304] | 124 | 138 | – | – | – |
| COc1ccc(C(=O)NC2CCCCC2)cc1NC(=O)C(C)C [NU-573] | 117 | 80 | – | – | – |
| COc1ccc(C(=O)Nc2ccc(Cl)c(Cl)c2)cc1NC(=O)C1C2CC3CC(C2)CC1C3 (centres unmarked) [NU-459] | 106 | 69 | – | – | – |
| COc1ccc(C(=O)Nc2ccncc2)cc1NC(=O)C(C)C [NU-565] | 66 | 55 | – | – | – |
| COc1ccc(C(=O)NCc2ccncc2)cc1NC(=O)C(C)C [NU-569] | 98 | 85 | – | – | – |
| COc1ccc(C(=O)Nc2cc(OC)c(OC)c(OC)c2)cc1N [NU-49] | – | – | – | – | Cell Death at 10 μM |
| COCCOc1ccc(C(=O)Nc2ccc(Cl)c(Cl)c2)cc1NC(=O)C1CCC1 [NU-616] | 171 | 152 | 95 | – | – |
